Where two headings read alike, the source gives them in different places.
Tests used:
Raffaelea quercivora = test: Flat plate antifungal test (PDA medium); assay type: cell-based; details: for inhibition at 0.01 ppm / inhibition at 0.1 ppm / inhibition at 1 ppm / inhibition at 10 ppm / inhibition at 100 ppm: Dryadomyces quercivorus, read-out: Inhibition rate of hyphal elongation; for inhibition at 0.01 ppm: 0.01 ppm in PDA medium; for antifungal effect on Raffaelea quercivora at low concentrations: concentrations of less than about 1 ppm
Description: The tree trunk injection agents was obtained by dissolving triflumizole to be each concentration of 100 ppm 10 ppm, 1 ppm, 0.1 pmm, and 0.01 ppm in solution for PDA (potato dextrose agar) medium. These tree trunk injection agents were poured into Petri dishes with inner diameter of 9 cm, and allowed to solidify to produce plate mediums with diameter of 9 cm. In this medium, the flora disk of Raffaelea quercivora was plated. This was cultured statically for 3 days to 4 days at 25° C. Then, the diameter of the flora was measured, and the inhibition rate of hyphal elongation was calculated. The inhibition rate of hyphal elongation (%) was calculated based on the formula: ((flora diameter of untreated group−flora diameter of medium containing triflumizole)/flora diameter of untreated group)×100.

[1] = test system: fungi which cause Laurel wilt; details: Non-Patent Document 1; cited from earlier work
[2] = 0.1 ppm in PDA medium, 3 to 4 days at 25° C.
[3] = 1 ppm in PDA medium, 3 to 4 days at 25° C.
[4] = 10 ppm in PDA medium, 3 to 4 days at 25° C.
[5] = 100 ppm in PDA medium, 3 to 4 days at 25° C.

CCCOC/C(=N\c1ccc(Cl)cc1C(F)(F)F)n1ccnc1 [triflumizole]
inhibition at 0.01 ppm (Raffaelea quercivora; 3 to 4 days at 25° C.): 25% | inhibition at 0.1 ppm (Raffaelea quercivora; [2]): 95% | inhibition at 1 ppm (Raffaelea quercivora; [3]): 96% | inhibition at 10 ppm (Raffaelea quercivora; [4]): 100% | inhibition at 100 ppm (Raffaelea quercivora; [5]): 100%

FC(F)C(F)(F)OCC(Cn1cncn1)c1ccc(Cl)cc1Cl (stereo not shown) [tetraconazole]
inhibition at 1 ppm (Raffaelea quercivora; [3]): 60% | inhibition at 10 ppm (Raffaelea quercivora; [4]): 100% | inhibition at 100 ppm (Raffaelea quercivora; [5]): 100% | antifungal effect on Raffaelea quercivora at low concentrations (Raffaelea quercivora): not exhibited any antifungal effect

CCCCC(O)(Cn1cncn1)c1ccc(Cl)cc1Cl (stereo not shown) [hexaconazole]
inhibition at 1 ppm (Raffaelea quercivora; [3]): 33% | inhibition at 10 ppm (Raffaelea quercivora; [4]): 98% | inhibition at 100 ppm (Raffaelea quercivora; [5]): 100% | antifungal effect on Raffaelea quercivora at low concentrations (Raffaelea quercivora): not exhibited any antifungal effect

CCCCC(C#N)(Cn1cncn1)c1ccc(Cl)cc1 (stereo not shown) [myclobutanil]
inhibition at 1 ppm (Raffaelea quercivora; [3]): 44% | inhibition at 10 ppm (Raffaelea quercivora; [4]): 96% | inhibition at 100 ppm (Raffaelea quercivora; [5]): 100% | antifungal effect on Raffaelea quercivora at low concentrations (Raffaelea quercivora): not exhibited any antifungal effect

CC1(C)CCC(Cc2ccc(Cl)cc2)C1(O)Cn1cncn1 (stereo not shown) [metconazole]
inhibition at 0.01 ppm (Raffaelea quercivora; 3 to 4 days at 25° C.): 35% | inhibition at 0.1 ppm (Raffaelea quercivora; [2]): 59% | inhibition at 1 ppm (Raffaelea quercivora; [3]): 97% | inhibition at 10 ppm (Raffaelea quercivora; [4]): 98% | inhibition at 100 ppm (Raffaelea quercivora; [5]): 100%

O=CNC(N1CCN(C(NC=O)C(Cl)(Cl)Cl)CC1)C(Cl)(Cl)Cl (stereo not shown) [triforine]
inhibition at 0.1 ppm (Raffaelea quercivora): 0% | inhibition at 1 ppm (Raffaelea quercivora): 0% | inhibition at 10 ppm (Raffaelea quercivora): 26% | inhibition at 100 ppm (Raffaelea quercivora): 100% | antifungal effect on Raffaelea quercivora at low concentrations (Raffaelea quercivora): not exhibited any antifungal effect

CCCC1COC(Cn2cncn2)(c2ccc(Cl)cc2Cl)O1 (stereo not shown) [propiconazole]
effectiveness for fungi which cause Laurel wilt [1]: highly effective

Source: patent US20150133509A1, “TREE TRUNK INJECTION” (NIPPON SODA CO., LTD., priority 2012, published 2015)
